In US10072026B2, “Crystalline form of 3-((1R,3s,5S)-3-((7-((5-methyl-1H-pyrazol-3-yl)amino)-1,6-naphthyridin-5-yl)amino)-8-azabicyclo[3.2.1]octan-8-yl)propanenitrile” (priority 2015, dated 2018):
Read-outs that look alike come from different tables or passages of the source.

Legend:
JAK1 = JAK1 (Homo sapiens (Human), UniProt P23458); test: LanthaScreen JAK biochemical assay (JAK1)
JAK2 = JAK2 (Homo sapiens (Human), UniProt O60674); test: LanthaScreen JAK biochemical assay (JAK2)
JAK3 = JAK3 (Homo sapiens (Human), UniProt P52333); test: LanthaScreen JAK biochemical assay (JAK3)
Tyk2 = Tyk2 (Homo sapiens (Human), UniProt P29597); test: LanthaScreen JAK biochemical assay (Tyk2)
[1] = system: IL-4 induced STAT6 phosphorylation in THP-1 human monocytic cells; test: Cellular JAK potency assay, THP-1
[2] = system: IL-13 induced STAT6 phosphorylation in BEAS-2B human lung epithelial cells; test: AlphaScreen cellular JAK potency assay, BEAS-2B
[3] = system: oxazolone-induced colitis; test: Mouse model of oxazolone-induced colitis; format: in vivo, BALB/C mice; details: mouse, PO, 1, 3, and/or 10 mg/kg BID
Description: Assay 7: Mouse Model of Oxazalone-Induced Colitis
Oxazolone-induced colitis is an experimental model that has a histological resemblance to human ulcerative colitis (Heller et al. Immunology, 2002, 17, 629-638). Adult BALB/C mice from Harlan were used in the assay. On day 1, animals were lightly anesthetized with isoflurane and the hairs between the shoulder were carefully removed before oxazolone (4%, 150 μL, 4:1 acetone:olive oil formulation) or vehicle solution was slowly applied for skin sensitization. Seven days after skin sensitization, the mice were fasted overnight, anesthetized with isoflurane inhalation, and a 1 mL syringe equipped with a 3.5-F catheter, filled with oxazolone solution, was inserted carefully about 4 cm into the colon of the mouse. Following insertion, 50 μL of the oxazolone solution (1%, 1:1 ethanol:water formulation) was injected very slowly (over 30 sec using an injection pump) into the colon. The catheter was removed and the mice were held vertically (head down) for 2 min to ensure that the entire oxazolone solution remained inside the colon. Drug treatment (PO, BID or TID) or vehicle was initiated a day prior to the oxazolone intrarectal (IR) challenge. Two-day post oxazolone intrarectal challenge, the Disease Activity Index (DAI) was assessed by treatment-blinded experimenters for each mouse according to the criteria score: stool consistency score (0, normal; 2, loose; 4, diarrhea), gross bleeding score (0, absence; 2, blood tinged; 4, presence), and weight loss score (0, none; 1, 1%-5%; 2, 5%-10%; 3, 10%-20%; 4, more than 20%); DAI=average of (stool consistency score+gross bleeding score+weight loss score).
Selected compounds of the invention were tested in the assay. Efficacy in the model is evidenced by a decrease in DAI score as compared with the score from vehicle treated animals.

[4] = THP-1 cells, IL-4 induced STAT6 phosphorylation
[5] = BEAS-2B cells, IL-13 induced STAT6 phosphorylation
[6] = Homo sapiens, THP-1, read-out: THP-1 IL4 pIC50 (converted)
[7] = IL-4 induced STAT6 phosphorylation, THP-1 cells
[8] = IL-13 induced STAT6 phosphorylation, BEAS-2B cells
[9] = read-out: JAK 1 (pKi) (converted)
[10] = Homo sapiens, BEAS-2B, read-out: BEAS2B pIC50 (converted)

Chain of JAK1 (P23458 whole entry): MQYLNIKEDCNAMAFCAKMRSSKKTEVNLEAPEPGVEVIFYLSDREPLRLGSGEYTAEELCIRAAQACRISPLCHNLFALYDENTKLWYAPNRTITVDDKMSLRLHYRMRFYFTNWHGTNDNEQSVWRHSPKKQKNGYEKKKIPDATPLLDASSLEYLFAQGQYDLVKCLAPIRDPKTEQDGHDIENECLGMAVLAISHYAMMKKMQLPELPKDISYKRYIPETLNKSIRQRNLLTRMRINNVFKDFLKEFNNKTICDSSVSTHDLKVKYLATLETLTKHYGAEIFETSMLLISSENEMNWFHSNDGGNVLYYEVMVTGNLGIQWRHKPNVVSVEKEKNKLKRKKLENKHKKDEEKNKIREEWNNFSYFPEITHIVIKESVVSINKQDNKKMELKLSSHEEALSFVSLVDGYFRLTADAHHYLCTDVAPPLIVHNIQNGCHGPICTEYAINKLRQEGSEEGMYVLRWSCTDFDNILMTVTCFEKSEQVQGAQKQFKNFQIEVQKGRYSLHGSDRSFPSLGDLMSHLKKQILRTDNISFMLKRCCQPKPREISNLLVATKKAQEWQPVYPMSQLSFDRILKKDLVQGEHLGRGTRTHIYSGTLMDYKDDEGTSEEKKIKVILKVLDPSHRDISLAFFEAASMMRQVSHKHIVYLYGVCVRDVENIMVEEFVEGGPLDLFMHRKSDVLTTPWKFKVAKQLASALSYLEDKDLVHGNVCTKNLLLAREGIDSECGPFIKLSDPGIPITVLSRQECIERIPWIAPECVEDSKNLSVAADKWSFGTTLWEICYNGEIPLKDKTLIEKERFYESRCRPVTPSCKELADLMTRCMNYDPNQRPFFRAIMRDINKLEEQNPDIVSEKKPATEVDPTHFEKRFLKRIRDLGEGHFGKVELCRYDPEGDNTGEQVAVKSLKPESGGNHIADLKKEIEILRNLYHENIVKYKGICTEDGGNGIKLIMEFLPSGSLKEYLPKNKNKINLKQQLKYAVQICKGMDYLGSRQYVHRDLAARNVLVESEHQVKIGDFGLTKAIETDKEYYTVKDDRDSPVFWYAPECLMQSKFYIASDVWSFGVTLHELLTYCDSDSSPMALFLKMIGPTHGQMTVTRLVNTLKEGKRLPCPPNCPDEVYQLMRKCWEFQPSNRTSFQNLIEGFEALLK
Chain of Tyk2 (P29597 whole entry): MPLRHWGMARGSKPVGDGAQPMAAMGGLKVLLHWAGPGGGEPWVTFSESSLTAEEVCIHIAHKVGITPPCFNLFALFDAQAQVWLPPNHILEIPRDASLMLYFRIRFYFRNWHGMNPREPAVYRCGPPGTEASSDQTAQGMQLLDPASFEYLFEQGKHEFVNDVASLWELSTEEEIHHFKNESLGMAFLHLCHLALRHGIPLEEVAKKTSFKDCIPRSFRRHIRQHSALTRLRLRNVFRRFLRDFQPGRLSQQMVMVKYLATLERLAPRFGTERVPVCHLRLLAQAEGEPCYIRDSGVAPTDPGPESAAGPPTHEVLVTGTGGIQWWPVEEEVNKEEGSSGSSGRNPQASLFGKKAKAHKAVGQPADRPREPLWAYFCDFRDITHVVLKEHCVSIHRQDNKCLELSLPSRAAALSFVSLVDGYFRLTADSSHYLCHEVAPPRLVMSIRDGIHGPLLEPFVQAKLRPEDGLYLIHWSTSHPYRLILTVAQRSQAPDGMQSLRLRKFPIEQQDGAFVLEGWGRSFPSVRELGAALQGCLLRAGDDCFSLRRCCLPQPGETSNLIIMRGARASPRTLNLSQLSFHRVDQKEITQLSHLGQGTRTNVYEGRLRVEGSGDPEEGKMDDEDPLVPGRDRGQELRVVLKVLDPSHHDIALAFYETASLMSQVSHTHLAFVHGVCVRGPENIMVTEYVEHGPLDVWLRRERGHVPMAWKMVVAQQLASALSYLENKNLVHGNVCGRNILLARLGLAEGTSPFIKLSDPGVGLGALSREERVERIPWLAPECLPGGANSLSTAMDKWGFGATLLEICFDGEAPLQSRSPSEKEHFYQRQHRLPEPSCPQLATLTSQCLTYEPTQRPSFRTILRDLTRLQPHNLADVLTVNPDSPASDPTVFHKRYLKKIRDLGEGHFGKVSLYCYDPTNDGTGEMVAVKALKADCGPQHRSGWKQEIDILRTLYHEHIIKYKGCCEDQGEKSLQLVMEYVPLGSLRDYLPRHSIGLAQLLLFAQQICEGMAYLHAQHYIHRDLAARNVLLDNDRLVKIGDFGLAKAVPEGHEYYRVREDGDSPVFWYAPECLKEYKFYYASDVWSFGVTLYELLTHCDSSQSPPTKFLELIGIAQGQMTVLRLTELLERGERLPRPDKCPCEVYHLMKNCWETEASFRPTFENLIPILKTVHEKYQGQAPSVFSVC
Chain of JAK2 (O60674 whole entry): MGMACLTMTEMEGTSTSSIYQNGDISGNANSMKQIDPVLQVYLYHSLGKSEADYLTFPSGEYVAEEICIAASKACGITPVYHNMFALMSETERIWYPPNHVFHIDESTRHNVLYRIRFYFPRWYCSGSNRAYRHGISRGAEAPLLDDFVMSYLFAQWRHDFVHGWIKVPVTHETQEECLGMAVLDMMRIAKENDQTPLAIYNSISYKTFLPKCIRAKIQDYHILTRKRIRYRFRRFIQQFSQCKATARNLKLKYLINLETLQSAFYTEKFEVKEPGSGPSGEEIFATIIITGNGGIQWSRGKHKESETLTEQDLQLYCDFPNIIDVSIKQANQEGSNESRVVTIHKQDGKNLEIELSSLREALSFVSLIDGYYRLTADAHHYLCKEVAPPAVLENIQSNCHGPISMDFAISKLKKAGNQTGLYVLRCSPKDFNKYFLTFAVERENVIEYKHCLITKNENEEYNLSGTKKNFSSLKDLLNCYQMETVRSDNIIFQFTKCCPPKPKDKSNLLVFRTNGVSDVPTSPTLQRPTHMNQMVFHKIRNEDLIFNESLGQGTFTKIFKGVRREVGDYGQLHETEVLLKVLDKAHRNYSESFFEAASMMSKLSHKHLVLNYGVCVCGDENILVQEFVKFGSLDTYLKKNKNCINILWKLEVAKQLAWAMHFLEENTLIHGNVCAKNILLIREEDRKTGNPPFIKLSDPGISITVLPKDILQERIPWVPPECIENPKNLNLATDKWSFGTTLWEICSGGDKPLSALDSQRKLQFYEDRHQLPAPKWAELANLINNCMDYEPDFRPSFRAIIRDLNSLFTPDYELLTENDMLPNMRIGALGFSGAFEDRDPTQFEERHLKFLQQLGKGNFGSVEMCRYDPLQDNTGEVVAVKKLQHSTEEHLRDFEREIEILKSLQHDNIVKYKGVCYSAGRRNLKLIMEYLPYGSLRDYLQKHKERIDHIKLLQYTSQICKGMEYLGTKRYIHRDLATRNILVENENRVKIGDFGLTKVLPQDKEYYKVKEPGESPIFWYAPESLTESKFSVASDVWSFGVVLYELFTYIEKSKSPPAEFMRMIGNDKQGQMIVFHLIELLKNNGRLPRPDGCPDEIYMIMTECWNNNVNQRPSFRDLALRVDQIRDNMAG

Row | SMILES | JAK 1 (pKi) (JAK1) | JAK 2 (pKi) (JAK2) | JAK 3 (pKi) (JAK3) | Tyk 2 (pKi) (Tyk2) | decrease in DAI score as compared with vehicle treated animals [3] | THP-1 IL4 pIC50 [1, 7] | BEAS2B pIC50 [2, 8] | further results
1 | Cc1cc(Nc2nc(N[C@@H]3C[C@H]4CCC[C@@H](C3)N4S(=O)(=O)c3ccccc3)c3cccnc3c2F)n[nH]1 [Example 8-11] | B (B represents a pKi value between 9 and 10 (Ki between 1 nM and 0.1 nM)) | B (B represents a pKi value between 9 and 10 (Ki between 1 nM and 0.1 nM)) | C (C represents a pKi value between 7 and 9 (Ki between 100 nM and 1 nM)) | C (C represents a pKi value between 7 and 9 (Ki between 100 nM and 1 nM)) | – | – | – | THP-1 IL4 pIC50 [1, 4]: B (B represents a pEC50 value between 6.7 and 7.5 (EC50 between 200 nM and 32 nM)); BEAS2B pIC50 [2, 5]: A (A represents a pEC50 value≥7.5 (EC50≤32 nM))
2 | Cc1cc(Nc2cc3ncccc3c(N[C@@H]3C[C@H]4CCC[C@@H](C3)N4C(=O)CN(C)C)n2)n[nH]1 [Example 4, 2-(Dimethylamino)-1-((1R,3s,5S)-3-((7-((5-methyl-1H-pyrazol-3-yl)amino)-1,6-naphthyridin-5-yl)amino)-9-azabicyclo[3.3.1]nonan-9-yl)ethan-1-one] | – | – | – | – | statistically significant decrease | – | – | Ki (JAK1): 0.1 to 1 nM; Ki (JAK2; read-out: JAK 2 (pKi) (converted)): 0.1 to 1 nM; IC50 [1, 6]: 31.6 to 200 nM
3 | Cc1cc(Nc2cc3ncccc3c(N[C@@H]3C[C@H]4CCC[C@@H](C3)N4S(=O)(=O)C3CC3)n2)n[nH]1 [Example 4-18] | A (A represents a pKi value≥10 (Ki≤0.1 nM)) | – | – | – | did not exhibit a statistically significant decrease | A (A represents a pEC50 value≥7.5 (EC50≤32 nM)) | A (A represents a pEC50 value≥7.5 (EC50≤32 nM)) | –
4 | COC(=O)c1cnc2cc(Nc3cc(C)[nH]n3)nc(N[C@@H]3C[C@H]4CCC[C@@H](C3)N4CCC#N)c2c1 [Example 6-47] | A (A represents a pKi value≥10 (Ki≤0.1 nM)) | A (A represents a pKi value≥10 (Ki≤0.1 nM)) | B (B represents a pKi value between 9 and 10 (Ki between 1 nM and 0.1 nM)) | B (B represents a pKi value between 9 and 10 (Ki between 1 nM and 0.1 nM)) | – | – | – | THP-1 IL4 pIC50 [1, 4]: A (A represents a pEC50 value≥7.5 (EC50≤32 nM)); BEAS2B pIC50 [2, 5]: A (A represents a pEC50 value≥7.5 (EC50≤32 nM))
5 | Cc1cnc2cc(Nc3cc(C)[nH]n3)nc(N[C@@H]3C[C@H]4CC[C@@H](C3)N4CCC#N)c2c1 [Example 6-1] | B (B represents a pKi value between 9 and 10 (Ki between 1 nM and 0.1 nM)) | B (B represents a pKi value between 9 and 10 (Ki between 1 nM and 0.1 nM)) | C (C represents a pKi value between 7 and 9 (Ki between 100 nM and 1 nM)) | B (B represents a pKi value between 9 and 10 (Ki between 1 nM and 0.1 nM)) | – | – | – | THP-1 IL4 pIC50 [1, 4]: A (A represents a pEC50 value≥7.5 (EC50≤32 nM)); BEAS2B pIC50 [2, 5]: A (A represents a pEC50 value≥7.5 (EC50≤32 nM))
6 | COCCS(=O)(=O)N1[C@@H]2CC[C@H]1C[C@H](Nc1nc(Nc3cc(C)[nH]n3)cc3ncccc13)C2 [Example 6, N^5-((1R,3s,5S)-8-((2-methoxyethyl)sulfonyl)-8-azabicyclo[3.2.1]octan-3-yl)-N^7-(5-methyl-1H-pyrazol-3-yl)-1,6-naphthyridine-5,7-diamine] | – | – | – | – | statistically significant decrease | – | – | –
7 | Cc1cc(Nc2cc3ncccc3c(N[C@@H]3C[C@H]4CC[C@@H](C3)N4S(=O)(=O)Cc3ccccc3)n2)n[nH]1 [Example 4-13] | B (B represents a pKi value between 9 and 10 (Ki between 1 nM and 0.1 nM)) | – | – | – | did not exhibit a statistically significant decrease | B (B represents a pEC50 value between 6.7 and 7.5 (EC50 between 200 nM and 32 nM)) | A (A represents a pEC50 value≥7.5 (EC50≤32 nM)) | –
8 | Cc1cc(Nc2cc3ncccc3c(N[C@@H]3C[C@H]4CCC[C@@H](C3)N4C(=O)OCC3CC3)n2)n[nH]1 [Example 3-10] | B (B represents a pKi value between 9 and 10 (Ki between 1 nM and 0.1 nM)) | B (B represents a pKi value between 9 and 10 (Ki between 1 nM and 0.1 nM)) | C (C represents a pKi value between 7 and 9 (Ki between 100 nM and 1 nM)) | B (B represents a pKi value between 9 and 10 (Ki between 1 nM and 0.1 nM)) | – | – | B (B represents a pEC50 value between 6.7 and 7.5 (EC50 between 200 nM and 32 nM)) | –
9 | Cc1cc(Nc2cc3nc(CO)ccc3c(N[C@@H]3C[C@H]4CC[C@@H](C3)N4CCC#N)n2)n[nH]1 [Example 5-11] | – | A (A represents a pKi value≥10 (Ki≤0.1 nM)) | – | – | did not exhibit a statistically significant decrease | A (A represents a pEC50 value≥7.5 (EC50≤32 nM)) | B (B represents a pEC50 value between 6.7 and 7.5 (EC50 between 200 nM and 32 nM)) | –
10 | Cc1cnc2cc(Nc3cc(C)[nH]n3)nc(N[C@@H]3C[C@H]4CC[C@@H](C3)N4S(C)(=O)=O)c2c1 [Example 6-5] | – | A (A represents a pKi value≥10 (Ki≤0.1 nM)) | – | – | – | – | – | Ki (JAK1; [9]): 0.1 to 1 nM; Ki (JAK3; read-out: JAK 3 (pKi) (converted)): 1 to 100 nM; Ki (Tyk2; read-out: Tyk 2 (pKi) (converted)): 0.1 to 1 nM; IC50 [1, 6]: < 31.6 nM; IC50 [2, 10]: < 31.6 nM
11 | CCC(=O)N1[C@@H]2CC[C@H]1C[C@H](Nc1nc(Nc3cc(C)[nH]n3)cc3ncccc13)C2 [Example 2-1] | – | – | – | – | did not exhibit a statistically significant decrease | – | – | Ki (JAK1; [9]): 0.1 to 1 nM; IC50 [1, 6]: 31.6 to 200 nM; IC50 [2, 10]: 31.6 to 200 nM
12 | Cc1cc(Nc2cc3ncccc3c(N[C@@H]3C[C@H]4CCC[C@@H](C3)N4S(=O)(=O)CC3CC3)n2)n[nH]1 [Example 4-23] | – | – | – | – | did not exhibit a statistically significant decrease | A (A represents a pEC50 value≥7.5 (EC50≤32 nM)) | A (A represents a pEC50 value≥7.5 (EC50≤32 nM)) | –
13 | Cc1cc(Nc2cc3ncccc3c(N[C@@H]3C[C@H]4CCC[C@@H](C3)N4S(=O)(=O)N3CC(C#N)C3)n2)n[nH]1 [Example 11, 1-(((1R,3s,5S)-3-((7-((5-methyl-1H-pyrazol-3-yl)amino)-1,6-naphthyridin-5-yl)amino)-9-azabicyclo[3.3.1]nonan-9-yl)sulfonyl)azetidine-3-carbonitrile] | – | – | – | – | did not exhibit a statistically significant decrease | – | – | IC50 [1, 6]: 31.6 to 200 nM; IC50 [2, 10]: < 31.6 nM
14 | COc1cnc2cc(Nc3cc(C)[nH]n3)nc(N[C@@H]3C[C@H]4CC[C@@H](C3)N4S(=O)(=O)CCC#N)c2c1 [Example 6-22] | B (B represents a pKi value between 9 and 10 (Ki between 1 nM and 0.1 nM)) | B (B represents a pKi value between 9 and 10 (Ki between 1 nM and 0.1 nM)) | C (C represents a pKi value between 7 and 9 (Ki between 100 nM and 1 nM)) | B (B represents a pKi value between 9 and 10 (Ki between 1 nM and 0.1 nM)) | – | – | – | BEAS2B pIC50 [2, 5]: B (B represents a pEC50 value between 6.7 and 7.5 (EC50 between 200 nM and 32 nM))
15 | Cc1cnc2cc(Nc3cc(C)[nH]n3)nc(N[C@@H]3C[C@H]4CCC[C@@H](C3)N4Cc3ccncc3)c2c1 [Example 6-10] | B (B represents a pKi value between 9 and 10 (Ki between 1 nM and 0.1 nM)) | B (B represents a pKi value between 9 and 10 (Ki between 1 nM and 0.1 nM)) | C (C represents a pKi value between 7 and 9 (Ki between 100 nM and 1 nM)) | B (B represents a pKi value between 9 and 10 (Ki between 1 nM and 0.1 nM)) | – | – | – | THP-1 IL4 pIC50 [1, 4]: B (B represents a pEC50 value between 6.7 and 7.5 (EC50 between 200 nM and 32 nM))
16 | CCC(C)C(=O)N1C2CCCC1CC(Nc1nc(Nc3cc(C)[nH]n3)cc3ncccc13)C2 (centres unmarked) [Example 2-18] | B (B represents a pKi value between 9 and 10 (Ki between 1 nM and 0.1 nM)) | B (B represents a pKi value between 9 and 10 (Ki between 1 nM and 0.1 nM)) | C (C represents a pKi value between 7 and 9 (Ki between 100 nM and 1 nM)) | B (B represents a pKi value between 9 and 10 (Ki between 1 nM and 0.1 nM)) | – | A (A represents a pEC50 value≥7.5 (EC50≤32 nM)) | – | –
